Converted amounts (≈) assume the structure as drawn. Read-outs that look alike come from different tables or passages of the source.
Key:
[1] = tested on: S. aureus; test: Sensitivity of PP to antibiotics, standard serial microbroth-dilution method (Example 24); type: cell-based; settings: for MIC: Staphylococcus aureus
[2] = tested on: PP+MM within the biosample; test: Presence of bacterial growth in the wells supplemented with amoxicillin; type: cell-based; parameters: key: “+” - presence of bacterial growth, antibiotic is ineffective; “−”- absence of bacterial growth, antibiotic is effective
Procedure: Next, biosamples were plated to the wells of 48 well plate filled with Columbia+Pept Meat Agar supplemented with Amoxicillin. We modulated a QID, BID and TID administration of amoxicillin on PP+MM within the biosample. The following assumptions were made.
Next we evaluated Presence of bacterial growth in the wells supplemented with amoxicillin.

[3] = tested on: Gram negative rods; test: Supplements added to culture media to control bacterial diversity (microscopy, 18 h); type: cell-based; parameters: key: “+++” marks the diversity of certain bacterial type in control; “+++++” indicates an increased diversity of bacterial type; settings: 18 h of cultivation
Source text: (§1) We next studied, could we regulate bacterial diversity grown from the bio samples with different compounds including transcriptase inhibitors, protease inhibitors, recombinase/integrase inhibitors, nucleases.

[4] = tested on: Gram positive non-sporeforming bacteria; test: as above; type: cell-based; parameters: key: “+++” marks the diversity of certain bacterial type in control; “+++++” indicates an increased diversity of bacterial type; settings: 18 h of cultivation
Source text: as §1

[5] = tested on: Gram positive sporeforming bacteria; test: as above; type: cell-based; parameters: key: “+++” marks the diversity of certain bacterial type in control; “+++++” indicates an increased diversity of bacterial type; settings: 18 h of cultivation
Source text: as §1

[6] = tested on: PP; test: Neutropenic mouse pneumonia infected with biosamples, tobramycin treatment, decrease of PP count by 3log10 over 48 hours; type: in vivo, C57BL/6 mice; settings: efficacy = decrease of PP count by 3log10 over 48 hours
Procedure: Next, using the same biosamples we infected mice modulating pneumonia. For that, adult C57BL/6 mice were rendered neutropenic by injecting cyclophosphamide subcutaneously 4 days before infection (150 mg/kg of body weight), 1 day before infection (100 mg/kg), and 1 day after infection (100 mg/kg). Mice were anesthetized with 2% isoflurane and orally instilled with biosample disluted in PBS. Briefly, nares were blocked, and mice aspirated 50 μL of the biosample into the lungs while being held vertically for 60 s. MIX was taken as a Cmax.
30 animals were used (n=10 per group) and were treated with different concentrations of tobramycin according to the results obtained by proposed method from 3 different biosamples.
(§2) Efficacy was evaluated by the decrease of PP count by 3log10 over 48 hours.

[7] = tested on: Primary Pathogens; test: Sensitivity of primary pathogens to antibiotics, standard serial microbroth-dilution method (Example 23); type: cell-based; settings: for MIC: Pseudomonas aeruginosa
Source text: We used sputum from patients with different pulmonary infections. Pure bacterial culture of each microorganisms was obtained by routine microbiological methods, bacterial identification was done by MALDI-TOF analysis, microbial diversity of biosample was done by metagenomic analysis (16S RNA sequencing).
Primary pathogen was selected as a leading pathogen in each infection case, based on consultation with an independent doctors who have received a description of the clinical picture, microbiology and microbiology analyses. Sensitivity of PP to antibiotics was evaluated using a standard serial microbroth-dilution method.

[8] = tested on: PP in sputum biosamples; test: Presence of PP growth in wells with different tobramycin concentrations; type: cell-based; parameters: key: “+”—presence of bacterial growth, antibiotic is ineffective; “−”—absence of bacterial growth, antibiotic is effective
Procedure: Next, biosamples were plated to the wells of 48 well plate filled with Columbia +Pept Meat Agar supplemented with tobramycin taken at different concentrations (we have taken MIC as equal to Cmax) and presence of PP growth was evaluated in each well in 24 h of growth.

[9] = tested on: PP; test: Animals treated with amoxicillin regimens, decrease of PP count by 3log10 over 48 hours; type: in vivo; settings: efficacy = decrease of PP count by 3log10 over 48 hours
Procedure: 25 animals were used (n=5 per group) and were treated with different concentrations of Amoxicillin according to the results obtained by proposed method from 3 different biosamples.
as §2

## CC1(C)S[C@@H]2[C@H](NC(=O)[C@H](N)c3ccc(O)cc3)C(=O)N2[C@H]1C(=O)O [Amoxicillin]
[1]; Biosample 1, S. aureus
  Sensitivity (CLSI interpretation): S
  MIC: 0.25 µg/mL (≈ 0.684 µM)
[1]; Biosample 2, S. aureus
  Sensitivity (CLSI interpretation): I
[1]; Biosample 3, S. aureus
  Sensitivity (CLSI interpretation): S
[1]; Biosample 2, S. aureus, read-out: MIC
  MIC: 4 µg/mL (≈ 10.9 µM)
[1]; Biosample 3, S. aureus, read-out: MIC
  MIC: 2 µg/mL (≈ 5.47 µM)
[2]; Biosample 1 (PP S. aureus), C0-6 h
  Presence of bacterial growth in the wells: −
[2]; Biosample 1 (PP S. aureus), C0-12 h
  Presence of bacterial growth in the wells: −
[2]; Biosample 1 (PP S. aureus), C0-24 h
  Presence of bacterial growth in the wells: −
[2]; Biosample 2 (PP S. aureus), C0-6 h
  Presence of bacterial growth in the wells: −
[2]; Biosample 2 (PP S. aureus), C0-12 h
  Presence of bacterial growth in the wells: +
[2]; Biosample 2 (PP S. aureus), C0-24 h
  Presence of bacterial growth in the wells: +
[2]; Biosample 3 (PP S. aureus), C0-6 h
  Presence of bacterial growth in the wells: −
[2]; Biosample 3 (PP S. aureus), C0-12 h
  Presence of bacterial growth in the wells: −
[2]; Biosample 3 (PP S. aureus), C0-24 h
  Presence of bacterial growth in the wells: +

## C[C@H](Cn1cnc2c(N)ncnc21)OCP(=O)(O)O [Group 7]
[3]; compound at 0.5 ug/mL
  diversity of Gram negative rods: +++
[4]; compound at 0.5 ug/mL
  diversity of Gram positive non-sporeforming bacteria: +++++
[5]; compound at 0.5 ug/mL
  diversity of Gram positive sporeforming bacteria: +++

## C[C@H](Cn1cnc2c(N)ncnc21)OCP(=O)(O)O [Group 8]
[3]; compound at 100 ug/mL
  diversity of Gram negative rods: +++
[4]; compound at 100 ug/mL
  diversity of Gram positive non-sporeforming bacteria: +++++
[5]; compound at 100 ug/mL
  diversity of Gram positive sporeforming bacteria: +++

## Nc1nc([O-])c2ncn(COCCO)c2n1.[Na+] [Group 11]
[3]; compound at 0.5 ug/mL
  diversity of Gram negative rods: +++
[4]; compound at 0.5 ug/mL
  diversity of Gram positive non-sporeforming bacteria: +++++
[5]; compound at 0.5 ug/mL
  diversity of Gram positive sporeforming bacteria: +++

## Nc1nc([O-])c2ncn(COCCO)c2n1.[Na+] [Group 12]
[3]; compound at 100 ug/mL
  diversity of Gram negative rods: +++
[4]; compound at 100 ug/mL
  diversity of Gram positive non-sporeforming bacteria: +++++
[5]; compound at 100 ug/mL
  diversity of Gram positive sporeforming bacteria: +++

## NC[C@H]1O[C@H](O[C@H]2[C@H](O)[C@@H](O[C@H]3O[C@H](CO)[C@@H](O)[C@H](N)[C@H]3O)[C@H](N)C[C@@H]2N)[C@H](N)C[C@@H]1O [Tobramycin]
[6]; Group 1a, biosample #1, Cmax 1/10 (lowest EFFECTIVE)
  Number of animals to whom therapy was effective/number of animals per group: 5/5
[6]; Group 1b, biosample #1, Cmax 1/100 (highest INEFFECTIVE)
  Number of animals to whom therapy was effective/number of animals per group: 0/5
[6]; Group 2a, biosample #2, Cmax 1/1 (lowest EFFECTIVE)
  Number of animals to whom therapy was effective/number of animals per group: 5/5
[6]; Group 2b, biosample #2, Cmax 1/10 (highest INEFFECTIVE)
  Number of animals to whom therapy was effective/number of animals per group: 0/5
[6]; Group 3a, biosample #3, Cmax 1/4 (lowest EFFECTIVE)
  Number of animals to whom therapy was effective/number of animals per group: 5/5
[6]; Group 3b, biosample #3, Cmax 1/10 (highest INEFFECTIVE)
  Number of animals to whom therapy was effective/number of animals per group: 0/5
[7]; Biosample 1, P. aeruginosa
  Sensitivity (CLSI interpretation): S
  MIC: 2 µg/mL (≈ 4.28 µM)
[7]; Biosample 2, P. aeruginosa
  Sensitivity (CLSI interpretation): I
  MIC: 8 µg/mL (≈ 17.1 µM)
[7]; Biosample 3, P. aeruginosa
  Sensitivity (CLSI interpretation): I
  MIC: 8 µg/mL (≈ 17.1 µM)
[8]; Biosample 1 (PP P. aeruginosa), 1/10 Cmax, 24 h
  Presence of bacterial growth in the wells: −
[8]; Biosample 1 (PP P. aeruginosa), 1/100 Cmax, 24 h
  Presence of bacterial growth in the wells: +
[8]; Biosample 1 (PP P. aeruginosa), Cmax × 2, 24 h
  Presence of bacterial growth in the wells: −
[8]; Biosample 1 (PP P. aeruginosa), Cmax × 10, 24 h
  Presence of bacterial growth in the wells: −
[8]; Biosample 1 (PP P. aeruginosa), Cmax, 24 h
  Presence of bacterial growth in the wells: −
[8]; Biosample 1 (PP P. aeruginosa), ¼ Cmax, 24 h
  Presence of bacterial growth in the wells: −
[8]; Biosample 1 (PP P. aeruginosa), ½ Cmax, 24 h
  Presence of bacterial growth in the wells: −
[8]; Biosample 2 (PP P. aeruginosa), 1/10 Cmax, 24 h
  Presence of bacterial growth in the wells: +
[8]; Biosample 2 (PP P. aeruginosa), 1/100 Cmax, 24 h
  Presence of bacterial growth in the wells: +
[8]; Biosample 2 (PP P. aeruginosa), Cmax × 2, 24 h
  Presence of bacterial growth in the wells: −
[8]; Biosample 2 (PP P. aeruginosa), Cmax × 10, 24 h
  Presence of bacterial growth in the wells: −
[8]; Biosample 2 (PP P. aeruginosa), Cmax, 24 h
  Presence of bacterial growth in the wells: −
[8]; Biosample 2 (PP P. aeruginosa), ¼ Cmax, 24 h
  Presence of bacterial growth in the wells: +
[8]; Biosample 2 (PP P. aeruginosa), ½ Cmax, 24 h
  Presence of bacterial growth in the wells: +
[8]; Biosample 3 (PP P. aeruginosa), 1/10 Cmax, 24 h
  Presence of bacterial growth in the wells: +
[8]; Biosample 3 (PP P. aeruginosa), 1/100 Cmax, 24 h
  Presence of bacterial growth in the wells: +
[8]; Biosample 3 (PP P. aeruginosa), Cmax × 2, 24 h
  Presence of bacterial growth in the wells: −
[8]; Biosample 3 (PP P. aeruginosa), Cmax × 10, 24 h
  Presence of bacterial growth in the wells: −
[8]; Biosample 3 (PP P. aeruginosa), Cmax, 24 h
  Presence of bacterial growth in the wells: −
[8]; Biosample 3 (PP P. aeruginosa), ¼ Cmax, 24 h
  Presence of bacterial growth in the wells: −
[8]; Biosample 3 (PP P. aeruginosa), ½ Cmax, 24 h
  Presence of bacterial growth in the wells: −
[9]; Group 1a, biosample #1, QID (lowest EFFECTIVE)
  Number of animals to whom therapy was effective/number of animals per group: 5/5
[9]; Group 2a, biosample #2, TID (lowest EFFECTIVE)
  Number of animals to whom therapy was effective/number of animals per group: 5/5
[9]; Group 2b, biosample #2, BID (highest INEFFECTIVE)
  Number of animals to whom therapy was effective/number of animals per group: 0/5
[9]; Group 3a, biosample #3, BID (lowest EFFECTIVE)
  Number of animals to whom therapy was effective/number of animals per group: 5/5
[9]; Group 3b, biosample #3, QID (highest INEFFECTIVE)
  Number of animals to whom therapy was effective/number of animals per group: 0/5

— US20240182945A1, “PRODUCTS FOR REGULATION OF EUKARYOTIC AND MICROBIAL CELLS GROWTH” (priority 2021, published 2024)
